Results as given in patent publication US20210238170A1, “5,5-Difluoro- and 5-Fluoro-5-Methyl-C-Glycoside Derivatives Useful As Dual SGLT1 / SGLT2 Modulators” (Janssen Pharmaceutica NV, priority 2018, published 2021).

Legend:
db/db mice = assay: SGLT inhibition evaluated in db/db mice: fed blood glucose AUC and 24-hr urine glucose excretion; type: in vivo, mouse; conditions: oral dose 10 mg/kg, mean ± SE, n = 8; for 24-hr Blood Glucose AUC vs Vehicle (%): fed
Protocol: Biological Example 3: In Vivo Assay
SGLT Inhibition Evaluated in db/db Mice
Based on fed blood glucose levels, db/db mice were allocated into either vehicle or test compound treated groups (n=8 in each group). After grouped, the mice were orally dosed with either vehicle or test compound at 0 and 10 mg/kg, in a volume of 10 ml/kg. The mice were then immediately transferred into mouse metabolic cages, after they were dosed. Fed blood glucose levels were determined at multiple timepoints after the animals were treated. Fed blood glucose AUC (area under the curve of blood glucose) was determined from the blood glucose levels measured at the timepoints.
Table 10 below, presents the measured efficacy of the test compound(s), expressed as a percentage (%) of blood glucose AUC vs that in vehicle group. The data is interpreted such that, the smaller the percentage of blood glucose AUC of compound vs vehicle, the greater efficacy of the test compound. Total urine glucose excretion (UGE) over the 24-hr period post treatment was calculated based on urine glucose concentrations and urine volumes at multiple timepoints. Urine glucose was measured using Olympus system with Genzyme diagnostics assay reagent.

SD rats = assay: Oral Glucose Tolerance Test (OGTT) in SD rats: blood glucose excursion AUC and urine glucose excretion; type: in vivo, rat; conditions: mean ± SE; for response vs control in vivo at 1 mg/kg / response vs control in vivo at 10 mg/kg: Rattus norvegicus, 2 h, n = 8, read-out: 120-min Blood Glucose AUC vs Vehicle (%); for Urine Glucose Excretion (g/0-4 hr): n = 8
Protocol: Biological Example 2: In Vivo Assay
Oral Glucose Tolerance Test (OGTT) in SD Rats
Overnight fasted SD rats were allocated into vehicle or test compound treatment groups based on their body weights (n=8 in each group). The animals were orally dosed with vehicle or test compound at a volume of 10 ml/kg at 30-minute prior to OGTT. The animals then received an OGTT challenge with 2 g/kg (50% glucose solution at the volume of 4 ml/kg, orally). The animals were immediately transferred into metabolic cages after they were dosed with the glucose. Blood glucose levels were measured at 0 (pre-OGTT), 30, 60, and 120 minutes after OGTT using one-touch Glucometer. Blood glucose excursion AUC (area under the curve of blood glucose) was determined from the blood glucose levels measured at the timepoints.
Table 9 below, presents the measured efficacy of the test compound(s), expressed as the percentage (%) of blood glucose AUC vs that in vehicle group. The data is interpreted such that, the smaller the percentage of blood glucose AUC of compound vs vehicle, the greater the efficacy of the test compound. Urine volume and urine glucose concentrations (tested by using Olympus system with Genzyme diagnostics assay reagent) were measured to determine the urine glucose excretion (UGE) in 4-hr period after OGTT (0-4 hours).

human SGLT2 = target: T1, human SGLT2 (Homo sapiens, UniProt P31639); assay: SGLT2 in vitro assay: Na-dependent 14C-AMG uptake in CHO-K1 cells stably expressing human SGLT2; type: cell-based; conditions: CHO-K1 cells stably expressing human SGLT2, 14C-AMG uptake; for inhibition at 0.3 µM: read-out: SGLT2 % Inh @ 0.3 μM; for IC50: compounds of formula (I) where R0 is fluoro
T1 construct: expressed in transfected cells
T1 sequence (P31639 1-672): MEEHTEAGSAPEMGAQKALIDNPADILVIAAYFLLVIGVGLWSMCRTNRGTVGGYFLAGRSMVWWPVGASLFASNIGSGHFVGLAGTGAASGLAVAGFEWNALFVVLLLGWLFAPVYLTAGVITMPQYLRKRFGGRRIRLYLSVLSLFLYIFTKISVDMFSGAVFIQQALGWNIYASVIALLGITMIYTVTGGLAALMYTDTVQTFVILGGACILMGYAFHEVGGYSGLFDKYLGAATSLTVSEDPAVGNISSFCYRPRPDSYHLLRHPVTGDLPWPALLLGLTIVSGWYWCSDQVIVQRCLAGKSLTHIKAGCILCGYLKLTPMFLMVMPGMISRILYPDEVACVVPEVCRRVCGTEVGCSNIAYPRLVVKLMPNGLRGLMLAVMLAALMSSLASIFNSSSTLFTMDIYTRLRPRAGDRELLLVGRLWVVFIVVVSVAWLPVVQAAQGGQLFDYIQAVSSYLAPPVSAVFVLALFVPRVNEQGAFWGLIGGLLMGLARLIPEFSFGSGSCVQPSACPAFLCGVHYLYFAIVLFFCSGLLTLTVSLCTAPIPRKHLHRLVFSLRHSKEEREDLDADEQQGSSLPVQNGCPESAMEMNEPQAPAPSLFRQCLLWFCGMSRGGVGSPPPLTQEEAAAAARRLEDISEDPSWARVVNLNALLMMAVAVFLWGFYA
In short: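 Sodium-dependent uptake of 14C-α-methyl-glucopyranoside ([…]) over 2 h at 37°C was counted by scintillation in stable human SGLT2- or SGLT1-CHO-K1 lines pretreated with 10 mM Na-butyrate. Compounds at 0.001–10 μM were preincubated for 10 min in pH 7.4 buffer with 137 mM NaCl; output is %-inhibition or IC50.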

For `COc1cc(O)c([C@@H]2O[C@H](CO)C(F)(F)[C@H](O)[C@H]2O)cc1Cc1ccc2c(c1)CCCO2` [Compound 44, (2S,3R,4R,6R)-2-(5-(chroman-6-ylmethyl)-2-hydroxy-4-methoxyphenyl)-5,5-difluoro-6-(hydroxymethyl)tetrahydro-2H-pyran-3,4-diol], the “24-hr Blood Glucose AUC vs Vehicle (%)” value (db/db mice) was 48.4 ± 3.4%, the “Urine Glucose Excretion (g/24 hr)” value (db/db mice) was 0.55 ± 0.12 g/24 hr and the response vs control in vivo at 1 mg/kg (SD rats; oral dose 1 mg/kg) was 61.7 ± 2.1%. The response vs control in vivo at 10 mg/kg (SD rats; oral dose 10 mg/kg) was 39.3 ± 1.7%, the “Urine Glucose Excretion (g/0-4 hr)” value (SD rats; oral dose 1 mg/kg) was 0.002 ± 0.001 g/0-4 hr and the “Urine Glucose Excretion (g/0-4 hr)” value (SD rats; oral dose 10 mg/kg) was 0.2 ± 0.02 g/0-4 hr. The inhibition at 0.3 µM (human SGLT2) was 90.1% and the IC50 (human SGLT2) was 1.3 nM.

With `COc1ccc(Cc2cc([C@@H]3O[C@H](CO)C(F)(F)[C@H](O)[C@H]3O)c(O)cc2Cl)cc1` [Compound 81, (2S,3R,4R,6R)-2-(4-chloro-2-hydroxy-5-(4-methoxybenzyl)phenyl)-5,5-difluoro-6-(hydroxymethyl)-tetrahydro-2H-pyran-3,4-diol] the “24-hr Blood Glucose AUC vs Vehicle (%)” value (db/db mice) was 55.0 ± 4.6%, the response vs control in vivo at 1 mg/kg (SD rats; oral dose 1 mg/kg) was 77.5 ± 2.4% and the response vs control in vivo at 10 mg/kg (SD rats; oral dose 10 mg/kg) was 41 ± 2.7%. For the same compound, the “Urine Glucose Excretion (g/0-4 hr)” value (SD rats; oral dose 1 mg/kg) was 0.099 ± 0.037 g/0-4 hr, the “Urine Glucose Excretion (g/0-4 hr)” value (SD rats; oral dose 10 mg/kg) was 0.276 ± 0.032 g/0-4 hr and the inhibition at 0.3 µM (human SGLT2) was 87.4%. It also gave an IC50 (human SGLT2) of 1.1 nM.
